Measurements published in patent US8945397B2, “Methods of inhibiting cyanobacteria growth by administering gramine derivatives” (priority 2012, dated 2015).

What was measured:
M. Aeruginosa [1] = assay: Liquid culture optical absorption assay (OD600) of M. aeruginosa growth, 15 days; assay type: cell-based, Microcystis aeruginosa; conditions: for OD600 Measured at Day 15 (Starting OD600 at Day 0 is 0.100): 0.5 mg/L compound, liquid culture, control 2.83; for Inhibition of M. aeruginosa growth in words (liquid culture): 0.5 mg/L, Table 2 and FIG. 3
Description: To quantitatively measure M. Aeruginosa cell growth in responding to various gamine compounds, cell densities were determined by an optical absorption assay as measured by a spectrophotometer (Nanodrop 2000, Thermo Scientific). In the optical absorption assay, the absorbance of radiation (light) is measured as a function of frequency (wavelength). For this optical absorption assay, the algal cell density was determined at 600 nm wavelength. Equal amount of starting cells (optical density at wavelength 600 nm, OD600, was at 0.100 on Day 0) were placed in freshwater culture for 15 days of growth. After 15 days, the algae cell suspension is pipetted into a cuvette and placed within the spectrophotometer for the optical absorption assay.
There is a clear and distinct decrease in M. Aeruginosa algae growth when administered with 5,6-dichlogramine (Compound No. 9) and with 5,6,7-trichlorogramine (Compound No. 12) compared to M. Aeruginosa algae growth in control samples.

M. Aeruginosa [2] = conditions: according to the Hong articles; cited from earlier work
[3] = test system: M. aeruginosa cyanobacterium; conditions: U.S. Pat. No. 7,612,049; cited from earlier work

| SMILES | OD600 Measured at Day 15 (Starting OD600 at Day 0 is 0.100) (M. Aeruginosa [1]) | other results |
| --- | --- | --- |
| CN(C)Cc1c[nH]c2ccc(Cl)cc12 [Compound No. 1, 5-chlorogramine] | 1.89 | Inhibition of M. aeruginosa growth in words (liquid culture) (M. Aeruginosa [1]): some inhibitory effects |
| CN(C)Cc1c[nH]c2ccccc12 [N,N-dimethyl-3-amino-methylindole] |  | concentration needed to inhibit the growth of M. aeruginosa (M. Aeruginosa [2]): at least 8 mg/L |
| CN(C)Cc1c[nH]c2ccc(Br)cc12 [compound 2, 5-bromogramine] | 1.95 | Inhibition of M. aeruginosa growth in words (liquid culture) (M. Aeruginosa [1]): some inhibitory effects |
| COc1ccc2[nH]cc(CN(C)C)c2c1 [compound 3, 5-methoxygramine] | 2.45 |  |
| Cc1cccc2[nH]cc(CN(C)C)c12 [compound 4, 4-methylgramine] | 2.49 |  |
| CN(C)Cc1c[nH]c2ccc(C#N)cc12 [compound 5, 5-cyanogramine] | 2.32 |  |
| CN(C)Cc1c[nH]c2cc(OCc3ccccc3)ccc12 [compound 7, 6-benzyloxygramine] | 2.12 | Inhibition of M. aeruginosa growth in words (liquid culture) (M. Aeruginosa [1]): some inhibitory effects |
| CN(C)Cc1c[nH]c2cccc(OCc3ccccc3)c12 [compound 8, 4-benzyloxygramine] | 2.54 |  |
| COc1cccc2[nH]cc(CN(C)C)c12 [compound 10, 4-methoxygramine] | 2.66 |  |
| CN(C)Cc1c[nH]c2cccc(C#N)c12 [compound 11, 4-cyanogramine] | 2.50 |  |
| N[C@H]1C(O)O[C@H](CO)[C@@H](O)[C@@H]1O (some centres unmarked) [glucosamine] |  | concentration to inhibit the growth of M. aeruginosa [3]: 10-50 ppm |
